Laboratory results as given in patent publication US10011578B2, “Compounds for stabilizing ryanodine receptors from aberrant levels of calcium release” (Rosalind Franklin University of Medicine and Science, priority 2013, dated 2018).
“Also recorded” adds a separate entry of the source.

Key:
RyR [1] = assay: Sub-chronic in vivo treatment of 3×Tg-AD mice, RyR-evoked calcium responses in CA1 neurons; design: species or system mouse; conditions: 10 mg/kg ip, 4 weeks, 10 mM caffeine on acute slices
Procedure: 3×Tg-AD, TgCRND8, PS1/APP, and nontransgenic (NonTg) J29/C57BL6 control mice were bred in-house. Adult male and female mice 3-5 months old were used. Animals were cared for and used in accordance with protocols approved by the Rosalind Franklin University of Medicine and Science Animal Care and Use Committee. Hippocampal brain slices (300 μm) were prepared as previously described (Briggs et al., Neurobiol. Aging, 2013, 34:1632-1643). Mice were anesthetized with halothane, decapitated, and the brain removed into ice-cold sucrose cutting solution (200 mM sucrose, 1.5 mM KCl, 0.5 mM CaCl2, 4.0 mM MgCl2, 1.0 mM KH2PO4, 25 mM NaHCO3, 10 mM Na-ascorbate, and 20 mM dextrose, equilibrated with 95% O2/5% CO2). Horizontal hippocampal slices were prepared in a Camden Instruments vibratome with the chamber filled with ice-cold sucrose cutting solution and then transferred to and maintained in standard artificial cerebrospinal fluid (aCSF; 130 mM NaCl, 2.5 mM KCl, 2.0 mM CaCl2, 1.2 mM MgSO4, 1.25 mM NaH2PO4, 25 mM NaHCO3, and 10 mM dextrose [305-310 mOsm], equilibrated with 95% O2/5% CO2, pH 7.3-7.4) at 32° C. for at least 1 hour before use. […] Membrane potentials were obtained in current-clamp mode, acquired at 10 kHz with a Digidata 1322 A-D converter and Multiclamp 700B amplifier, and recorded and analyzed using pClamp 10.2 (Molecular Devices). […]

[2] = Sub-chronic in vivo treatment of 3×Tg-AD mice, heart weight and body weight; design: species or system mouse; conditions: 10 mg/kg ip, 4 weeks
Procedure: Ca^2+ signaling and electrophysiological properties of CA1 pyramidal neurons were studied in hippocampal brain slices according to the protocols disclosed in Example 1. Briefly, 3×Tg-AD mice were treated with either saline (0.9%), CK013 or CK017 for four weeks (10 mg/kg; ip), and then acute hippocampal brain slice preparations were made for the purposes of performing whole cell patch clamp recordings and 2-photon calcium imaging in CA1 pyramidal neurons. The objective was to determine if our compounds could restore normal RyR-mediated calcium signaling in the AD mice and maintain normal membrane physiology.
Also, passive membrane properties such as resting membrane potential and membrane input resistance were not affected by these compounds. […] Additionally, there were no statistically significant differences in the ratio of heart weight:body weight among the treatment groups (Table 4; p>0.05), nor were there differences in absolute body weights or heart weights among the groups (data not shown; […]).

RyR [3] = assay: RyR-evoked calcium response in CA1 pyramidal neurons of hippocampal brain slices, acute incubation; format: cell-based, mouse; conditions: 3×Tg-AD hippocampal slices, caffeine, 10 μM, 1 hour incubation
Procedure: 3×Tg-AD, TgCRND8, PS1/APP, and nontransgenic (NonTg) J29/C57BL6 control mice were bred in-house. Adult male and female mice 3-5 months old were used. Animals were cared for and used in accordance with protocols approved by the Rosalind Franklin University of Medicine and Science Animal Care and Use Committee. […] Whole-cell patch-clamp recordings were conducted at room temperature (23° C.) in continuously superfused aCSF (1.5-2.0 mL/min). […] Hippocampal CA1 pyramidal neurons were identified visually via infrared differential interference contrast (IR-DIC) optics, and electrophysiologically by their passive membrane properties and spike frequency accommodation. […] Minianalysis 6.0.7 (Synaptosoft, Fort Lee, N.J.) was used to detect and measure spontaneous excitatory postsynaptic potential (sEPSP) events with a minimal amplitude of 0.2 mV and minimal area of 3 mV*msec.
(§1) Voltage-gated Ca^2+ channel (VGCC) responses were elicited by depolarization via current injected through the patch pipette with the current level adjusted to elicit a train of 8-10 spikes.

Log P (Table 1) = format: physicochemical
[4] = Brain/plasma ratio, brain levels in vivo; conditions: for Kp: brain and plasma
[5] = Aqueous solubility at pH 7.4; format: physicochemical
[6] = target: T1, RyR (RyR2-expressing N2A cell line) (Mus musculus, UniProt E9Q401); assay: RyR-evoked (caffeine) calcium response in N2A cells, 2-photon fura-2 imaging; format: cell-based; conditions: for effect on caffeine-stimulated Ca^2+ release compared with dantrolene: 10 μM; for Ca^2+ Inc (Ca^2+ increase over baseline): caffeine-stimulated, compounds tested at 10 μM
T1 construct: tested using a RyR2-expressing N2A cell line; host or cells: N2a (Neuro-2a) cells
T1 sequence (E9Q401 whole entry): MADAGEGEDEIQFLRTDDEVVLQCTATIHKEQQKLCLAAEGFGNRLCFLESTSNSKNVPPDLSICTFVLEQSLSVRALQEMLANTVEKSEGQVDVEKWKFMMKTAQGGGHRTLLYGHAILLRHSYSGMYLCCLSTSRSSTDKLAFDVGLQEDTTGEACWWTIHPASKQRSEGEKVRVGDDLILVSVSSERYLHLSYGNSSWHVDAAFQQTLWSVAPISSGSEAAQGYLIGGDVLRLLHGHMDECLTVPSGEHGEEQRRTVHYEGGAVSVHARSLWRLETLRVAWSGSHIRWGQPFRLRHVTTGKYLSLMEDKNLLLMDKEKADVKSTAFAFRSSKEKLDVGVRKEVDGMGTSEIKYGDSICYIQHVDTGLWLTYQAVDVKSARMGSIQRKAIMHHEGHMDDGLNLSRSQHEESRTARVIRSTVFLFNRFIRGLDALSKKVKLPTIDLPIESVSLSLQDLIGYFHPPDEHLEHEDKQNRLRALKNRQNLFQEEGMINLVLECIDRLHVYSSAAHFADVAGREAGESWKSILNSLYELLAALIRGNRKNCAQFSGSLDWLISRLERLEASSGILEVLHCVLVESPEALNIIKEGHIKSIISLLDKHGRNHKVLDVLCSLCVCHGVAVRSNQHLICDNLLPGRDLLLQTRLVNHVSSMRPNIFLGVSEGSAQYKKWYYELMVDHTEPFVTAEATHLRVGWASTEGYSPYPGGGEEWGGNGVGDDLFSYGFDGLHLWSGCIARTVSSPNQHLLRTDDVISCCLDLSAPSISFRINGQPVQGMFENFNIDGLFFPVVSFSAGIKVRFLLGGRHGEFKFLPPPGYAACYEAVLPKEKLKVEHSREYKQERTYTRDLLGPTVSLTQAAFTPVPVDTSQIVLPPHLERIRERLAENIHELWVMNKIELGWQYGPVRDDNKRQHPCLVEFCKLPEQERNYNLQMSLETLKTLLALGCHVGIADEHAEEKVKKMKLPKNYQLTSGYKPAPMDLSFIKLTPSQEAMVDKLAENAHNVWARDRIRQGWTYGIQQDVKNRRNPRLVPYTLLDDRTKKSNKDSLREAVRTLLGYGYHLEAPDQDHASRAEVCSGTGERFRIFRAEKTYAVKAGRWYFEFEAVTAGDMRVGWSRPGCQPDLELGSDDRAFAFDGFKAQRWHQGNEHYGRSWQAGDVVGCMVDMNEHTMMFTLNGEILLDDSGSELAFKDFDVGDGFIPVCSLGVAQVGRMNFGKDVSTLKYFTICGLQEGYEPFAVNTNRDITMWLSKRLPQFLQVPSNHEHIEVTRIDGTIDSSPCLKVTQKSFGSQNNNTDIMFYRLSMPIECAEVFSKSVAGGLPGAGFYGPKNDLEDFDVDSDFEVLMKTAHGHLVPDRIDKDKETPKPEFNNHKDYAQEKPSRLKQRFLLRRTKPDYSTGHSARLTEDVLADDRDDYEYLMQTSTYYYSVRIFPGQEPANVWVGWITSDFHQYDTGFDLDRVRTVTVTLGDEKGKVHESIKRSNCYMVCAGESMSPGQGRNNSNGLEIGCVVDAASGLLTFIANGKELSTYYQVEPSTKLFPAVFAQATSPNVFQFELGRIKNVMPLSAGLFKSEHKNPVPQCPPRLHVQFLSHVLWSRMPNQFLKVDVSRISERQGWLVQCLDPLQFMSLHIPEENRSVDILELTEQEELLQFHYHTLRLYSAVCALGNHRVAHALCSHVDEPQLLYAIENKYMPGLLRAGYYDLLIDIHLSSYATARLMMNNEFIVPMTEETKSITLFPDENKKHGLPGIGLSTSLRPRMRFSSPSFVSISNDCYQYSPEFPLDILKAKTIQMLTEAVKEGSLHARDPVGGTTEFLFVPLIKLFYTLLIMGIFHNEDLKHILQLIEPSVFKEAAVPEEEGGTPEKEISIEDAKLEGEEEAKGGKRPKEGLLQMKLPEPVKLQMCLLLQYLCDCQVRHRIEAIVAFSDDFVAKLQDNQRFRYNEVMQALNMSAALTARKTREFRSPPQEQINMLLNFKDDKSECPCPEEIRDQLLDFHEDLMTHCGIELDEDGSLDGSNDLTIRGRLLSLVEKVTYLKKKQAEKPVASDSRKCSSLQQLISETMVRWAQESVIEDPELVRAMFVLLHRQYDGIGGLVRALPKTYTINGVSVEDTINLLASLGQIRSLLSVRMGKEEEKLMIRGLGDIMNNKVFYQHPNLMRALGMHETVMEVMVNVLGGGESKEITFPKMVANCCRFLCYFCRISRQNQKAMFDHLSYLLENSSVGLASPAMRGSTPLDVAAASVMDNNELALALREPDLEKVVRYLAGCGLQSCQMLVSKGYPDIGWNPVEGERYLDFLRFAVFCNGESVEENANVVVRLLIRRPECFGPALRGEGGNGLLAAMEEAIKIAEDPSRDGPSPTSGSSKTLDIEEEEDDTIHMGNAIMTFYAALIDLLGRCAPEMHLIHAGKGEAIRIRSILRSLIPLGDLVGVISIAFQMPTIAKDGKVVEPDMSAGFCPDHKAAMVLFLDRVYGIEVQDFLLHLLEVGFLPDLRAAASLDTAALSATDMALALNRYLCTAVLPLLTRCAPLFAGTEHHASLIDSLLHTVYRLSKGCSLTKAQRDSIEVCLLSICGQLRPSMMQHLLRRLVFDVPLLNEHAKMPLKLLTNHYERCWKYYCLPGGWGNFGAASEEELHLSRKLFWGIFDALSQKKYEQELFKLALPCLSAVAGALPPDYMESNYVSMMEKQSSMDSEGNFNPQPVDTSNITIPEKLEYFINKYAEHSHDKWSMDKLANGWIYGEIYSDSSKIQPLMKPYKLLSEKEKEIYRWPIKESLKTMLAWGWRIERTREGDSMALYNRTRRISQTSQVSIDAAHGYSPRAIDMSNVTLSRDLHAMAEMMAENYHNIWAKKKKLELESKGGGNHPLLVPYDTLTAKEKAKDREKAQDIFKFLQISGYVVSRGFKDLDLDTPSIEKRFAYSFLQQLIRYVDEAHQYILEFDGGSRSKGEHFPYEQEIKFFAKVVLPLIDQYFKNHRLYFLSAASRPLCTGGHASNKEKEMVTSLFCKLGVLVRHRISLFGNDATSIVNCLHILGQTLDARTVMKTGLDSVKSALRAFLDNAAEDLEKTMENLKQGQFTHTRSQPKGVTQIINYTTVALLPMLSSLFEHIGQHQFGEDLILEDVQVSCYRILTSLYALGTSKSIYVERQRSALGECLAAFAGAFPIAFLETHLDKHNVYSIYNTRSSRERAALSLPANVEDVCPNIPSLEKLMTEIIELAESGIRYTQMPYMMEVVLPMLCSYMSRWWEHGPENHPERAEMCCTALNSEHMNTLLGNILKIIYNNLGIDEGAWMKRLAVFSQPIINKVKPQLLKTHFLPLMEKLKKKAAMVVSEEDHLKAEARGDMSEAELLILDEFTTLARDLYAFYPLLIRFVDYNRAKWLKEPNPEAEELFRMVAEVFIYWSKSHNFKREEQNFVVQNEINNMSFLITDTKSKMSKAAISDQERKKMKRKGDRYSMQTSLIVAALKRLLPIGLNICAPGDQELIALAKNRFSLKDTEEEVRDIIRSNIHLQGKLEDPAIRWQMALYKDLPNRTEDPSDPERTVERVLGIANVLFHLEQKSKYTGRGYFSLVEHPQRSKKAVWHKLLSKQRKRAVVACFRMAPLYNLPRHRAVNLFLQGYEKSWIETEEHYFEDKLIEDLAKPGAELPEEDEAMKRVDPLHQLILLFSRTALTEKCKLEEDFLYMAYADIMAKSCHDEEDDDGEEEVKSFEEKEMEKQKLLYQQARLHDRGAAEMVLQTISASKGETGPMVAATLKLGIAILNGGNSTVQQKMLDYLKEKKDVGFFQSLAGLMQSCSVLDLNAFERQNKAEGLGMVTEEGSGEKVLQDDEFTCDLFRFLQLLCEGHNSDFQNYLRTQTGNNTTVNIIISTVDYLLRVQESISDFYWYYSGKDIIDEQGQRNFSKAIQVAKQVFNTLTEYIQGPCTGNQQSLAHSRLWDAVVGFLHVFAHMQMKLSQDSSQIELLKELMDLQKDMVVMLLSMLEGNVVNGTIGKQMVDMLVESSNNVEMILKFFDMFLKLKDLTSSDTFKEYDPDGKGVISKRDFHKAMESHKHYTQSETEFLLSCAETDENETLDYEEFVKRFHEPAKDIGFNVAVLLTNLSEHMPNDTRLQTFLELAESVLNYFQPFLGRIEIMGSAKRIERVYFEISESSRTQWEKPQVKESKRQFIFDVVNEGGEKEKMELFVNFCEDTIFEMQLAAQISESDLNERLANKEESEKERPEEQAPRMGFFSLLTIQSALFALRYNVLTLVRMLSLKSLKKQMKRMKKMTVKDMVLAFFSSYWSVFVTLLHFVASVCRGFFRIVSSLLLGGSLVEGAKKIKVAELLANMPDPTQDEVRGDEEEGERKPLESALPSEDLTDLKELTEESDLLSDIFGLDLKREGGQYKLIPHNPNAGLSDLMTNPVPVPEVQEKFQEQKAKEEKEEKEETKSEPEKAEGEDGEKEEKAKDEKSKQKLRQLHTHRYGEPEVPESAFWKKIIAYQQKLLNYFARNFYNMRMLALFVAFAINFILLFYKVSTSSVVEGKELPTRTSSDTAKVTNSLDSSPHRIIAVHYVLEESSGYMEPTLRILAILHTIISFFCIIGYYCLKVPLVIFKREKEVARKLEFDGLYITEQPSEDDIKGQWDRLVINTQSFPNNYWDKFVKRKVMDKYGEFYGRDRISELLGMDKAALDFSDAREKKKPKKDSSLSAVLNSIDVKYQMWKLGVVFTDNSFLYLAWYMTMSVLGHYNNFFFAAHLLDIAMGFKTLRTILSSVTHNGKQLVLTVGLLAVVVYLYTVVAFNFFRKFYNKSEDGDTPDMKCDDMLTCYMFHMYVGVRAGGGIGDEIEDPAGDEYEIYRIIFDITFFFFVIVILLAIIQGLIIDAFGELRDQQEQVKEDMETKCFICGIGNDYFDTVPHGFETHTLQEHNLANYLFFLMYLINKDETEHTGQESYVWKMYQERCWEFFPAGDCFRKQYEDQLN
Procedure: All incubations and washes were at 37° C. with 10% CO2.
Glass cover slips with fura 2-AM-filled N2a cells were placed in a submersion chamber on the stage of an upright Olympus BX51 microscope which is coupled to a 2-photon laser imaging system. […] Ca^2+ imaging of individual cells was accomplished using a custom-made video-rate 2-photon imaging system. Laser excitation was provided by 100 fs pulses at 780 nm (80 MHz) from a Ti:sapphire laser (Mai Tai Broadband, Spectra-Physics). The laser beam was scanned by a resonant galvanometer (General Scanning Lumonics), allowing rapid (7.9 kHz) bidirectional scanning in the x-axis, and by a conventional linear galvanometer in the y-axis, to provide a full-frame scan rate of 30 frames/s. The laser beam was focused onto the cells through an Olympus 40× water-immersion objective (numerical aperture 0.8). Emitted fluorescence light was detected by a wide-field photomultiplier (Electron Tubes) to derive a video signal that was captured and analyzed by Video Savant 5.0 software (10 Industries). Further analysis of background-corrected images was performed using MetaMorph software. For clarity, results are expressed as inverse ratios so that increases in [Ca^2+ correspond to increasing ratios. The % change is calculated as [(F0/ΔF)−1]*100 where F0 is the average resting fluorescence at baseline and ΔF is the decrease of fluorescence reflecting Ca^2+ release. Differences between treatment groups were assessed using two-way ANOVA and Scheffe post hoc analysis for significance (p<0.05). Somatic Ca^2+ responses in all cells in the field of view were analyzed (n=8-20), with the nucleus region excluded. All compounds were tested in triplicate.

TG-CRND8 AD mice = assay: Chronic dantrolene in TgCRND8 AD mice, CP13 phospho-tau immunostaining; format: in vivo, mouse; conditions: 10 mg/kg IP, 4 weeks
Procedure: Mice are deeply anesthetized with urethane, the thoracic cavity opened, and cannula inserted into the left ventricle of the heart, and a small hole cut into the right atrium. Ice cold saline (3 mL) and then 4% paraformaldehyde (5 mL), or 4% paraformaldehyde/1% glutaraldehyde are perfused through the circulatory system. Following this, the mice are decapitated with sharp scissors and the brain prepared for staining or microscopy.

[7] = tested on: AD mouse models (3×Tg-AD and PS1/APP); assay: 4-week dantrolene treatment in AD mouse models (3×Tg-AD, APP/PS1): calcium, amyloid, synaptic integrity, RyR2 expression; format: in vivo
Procedure: 3×Tg-AD, TgCRND8, PS1/APP, and nontransgenic (NonTg) J29/C57BL6 control mice were bred in-house. Adult male and female mice 3-5 months old were used. Animals were cared for and used in accordance with protocols approved by the Rosalind Franklin University of Medicine and Science Animal Care and Use Committee. Hippocampal brain slices (300 μm) were prepared as previously described (Briggs et al., Neurobiol. Aging, 2013, 34:1632-1643). Mice were anesthetized with halothane, decapitated, and the brain removed into ice-cold sucrose cutting solution (200 mM sucrose, 1.5 mM KCl, 0.5 mM CaCl2, 4.0 mM MgCl2, 1.0 mM KH2PO4, 25 mM NaHCO3, 10 mM Na-ascorbate, and 20 mM dextrose, equilibrated with 95% O2/5% CO2). Horizontal hippocampal slices were prepared in a Camden Instruments vibratome with the chamber filled with ice-cold sucrose cutting solution and then transferred to and maintained in standard artificial cerebrospinal fluid (aCSF; 130 mM NaCl, 2.5 mM KCl, 2.0 mM CaCl2, 1.2 mM MgSO4, 1.25 mM NaH2PO4, 25 mM NaHCO3, and 10 mM dextrose [305-310 mOsm], equilibrated with 95% O2/5% CO2, pH 7.3-7.4) at 32° C. for at least 1 hour before use. Whole-cell patch-clamp recordings were conducted at room temperature (23° C.) in continuously superfused aCSF (1.5-2.0 mL/min). Patch pipettes (5-7 MO) were filled with intracellular solution (135 mM K-gluconate, 2.0 mM MgCl2, 4.0 mM Na2-ATP, 0.4 mM Na-GTP, 10 mM Na-phosphocreatine, 10 mM HEPES adjusted to pH 7.3 with KOH) plus 50 μM bis-fura-2 hexapotassium (Life Technologies) as fluorescent Ca^2+ sensor. Hippocampal CA1 pyramidal neurons were identified visually via infrared differential interference contrast (IR-DIC) optics, and electrophysiologically by their passive membrane properties and spike frequency accommodation. Membrane potentials were obtained in current-clamp mode, acquired at 10 kHz with a Digidata 1322 A-D converter and Multiclamp 700B amplifier, and recorded and analyzed using pClamp 10.2 (Molecular Devices). Minianalysis 6.0.7 (Synaptosoft, Fort Lee, N.J.) was used to detect and measure spontaneous excitatory postsynaptic potential (sEPSP) events with a minimal amplitude of 0.2 mV and minimal area of 3 mV*msec. See Chakroborty et al., 2012, J. Neurosci. 32(24):8341-53 for further experimental details.
as §1

[8] = chronic oral treatment (10+ months); cited from earlier work

Structure (SMILES)	logP (Log P (Table 1))	effect on caffeine-stimulated Ca^2+ release compared with dantrolene [6]	Ca^2+ Inc (Ca^2+ increase over baseline) [6]	also measured
O=C(Cc1ccccc1)N/N=C/c1ccc(-c2ccccc2)o1 [CK013]	–	–	–	RyR-evoked calcium responses after chronic treatment (RyR [1]): not different from the NonTg control responses; also recorded: not different from the control NonTg saline treated mice; Ratio of heart weight:body weight [2]: 4.06 × 10^−3; RyR-evoked calcium response in AD neurons (RyR [3]): normalized aberrant RyR-evoked calcium signals; also recorded: significantly reduced to within physiological levels
O=C(N/N=C/c1ccc(-c2ccc(Cl)cc2)o1)N/N=C/c1ccc(-c2ccc(Cl)cc2)o1 [CK017]	–	–	–	RyR-evoked calcium responses after chronic treatment (RyR [1]): not different from the NonTg control responses; also recorded: not different from the control NonTg saline treated mice; Ratio of heart weight:body weight [2]: 3.6 × 10^−3; RyR-evoked calcium response in AD neurons (RyR [3]): normalized aberrant RyR-evoked calcium signals; also recorded: significantly reduced to within physiological levels
O=C1CN(/N=C/c2ccc(-c3ccccc3)o2)C(=O)N1 [RD05]	1.8	block calcium release to a greater degree than dantrolene; also recorded: comparable or superior effects on Ca^2+ release	1.43 fold	CNS penetration compared with dantrolene [4]: markedly improved; brain levels relative to those of dantrolene [4]: > 50 times; Kp [4]: 0.5; solubility compared with dantrolene [5]: markedly improved solubility
CC(=O)N/N=C/c1ccc(-c2cccc([N+](=O)[O-])c2)o1 [RD09]	2.5	block calcium release to a greater degree than dantrolene	1.06 fold	–
CN1CCN(C(=O)N/N=C/c2ccc(-c3ccc([N+](=O)[O-])cc3Cl)o2)CC1 [RD10]	3.4	–	4.25 fold	–
O=C(N/N=C/c1ccc(-c2cccc([N+](=O)[O-])c2)o1)c1ccccn1 [RD11]	3	block calcium release to a greater degree than dantrolene	1.38 fold	–
Cc1c(-c2ccc(/C=N/NC(N)=O)o2)ccc([N+](=O)[O-])c1C [RD14]	3.2	comparable to dantrolene's effect; also recorded: comparable or superior effects on Ca^2+ release	2.38 fold	CNS penetration compared with dantrolene [4]: markedly improved; Kp [4]: 1.6; solubility compared with dantrolene [5]: markedly improved solubility
O=C(N/N=C/c1ccc(-c2ccc([N+](=O)[O-])cc2Cl)o1)Nc1ccccc1 [RD54]	5.1	–	>6 fold	–
O=C(N/N=C/c1ccc(-c2ccc(Br)cc2)o1)c1ccc([N+](=O)[O-])cc1 [RD77]	5	–	>6 fold	–
O=C(N/N=C/c1ccc(-c2ccc([N+](=O)[O-])cc2)o1)c1ccc(Cl)cc1Cl [RD83]	5.5	–	>6 fold	–
O=C(N/N=C/c1ccc(-c2cccc(Cl)c2Cl)o1)c1ccccn1 [RD91]	4.4	–	>6 fold	–
O=C1CN(/N=C/c2ccc(-c3ccc([N+](=O)[O-])cc3)o2)C(O)=N1 [dantrolene, 1-{[5-(4-nitrophenyl)-2-furyl]methylideneamino} imidazolidine-2,4-dione]	–	–	1.96 fold	phospho-tau (CP13) staining, dentate gyrus (TG-CRND8 AD mice): reduces phosphorylated tau; also recorded: significantly reduced; soluble and insoluble Aβ deposition ([7]; 3×Tg-AD and PS1/APP, 4-week treatment, 5-10 mg/kg): significantly reduced; synaptic integrity (synaptophysin/PSD-95 colocalization), synaptic transmission properties ([7]; AD mice, 4-week treatment): restored synaptic transmission properties and synaptic integrity; ER calcium responses (soma, dendrites, dendritic spines) ([7]; AD mice, 4-week treatment, 5-10 mg/kg): returned the exaggerated ER-Ca^2+ release in dendritic spines to NonTg levels; also recorded: normalizes this calcium response; RyR2 mRNA expression levels, hippocampus ([7]; AD-Tg mice, 10 mg/kg, 4 weeks): normalized expression levels of RyR2; reduction of beta amyloid levels (4G8 immunostaining) ([7]; hippocampus and cortex, 4-week treatment): 45%; amyloid pathology [8]: increase amyloid pathology; reduction of the evoked RyR-calcium response ([6]; caffeine (10 mM), pre-incubated 30 minutes): over 60%
